For data set [1], the system named is PC-3 (AR−) prostate cancer cells. Description: Cell proliferation assay (MTS) on PC-3 (AR−) prostate cancer cells. The data set is classed as cell-based. The following applies: Table 3, 3 days incubation.
Data set [2] deals with Shionogi mammary carcinoma cells (AR+). As to the kind of experiment: Cell proliferation assay (MTS) on Shionogi mammary carcinoma cells. The note with it: Table 3, 3 days incubation. The data set is classed as cell-based. The method, then:
Shionogi mammary carcinoma cells bearing androgen-sensitive (AR+) were routinely grown in Eagle's Minimal Essential Medium (MEM) (Sigma, Saint Louis, USA) supplemented with 5% (v/v) fetal bovine serum (FBS), penicillin (100 IU/ml), streptomycin sulphate (50 μg/ml), 1% (v/v) non-essential amino acids and dihydrotestosterone DHT (10^−8 M). For the assay, MEM devoid of the pH indicator phenol red was supplemented with 2% (v/v) charcoal-strippes FBS and the same concentrations of antibiotics and non-essential amino acids as above.

Data set [3] can be described thus: in vivo. The note with it: male, Sprague-Dawley, rat, sc, 2.3 mg/kg.
Method: (§1) Animals: Six to seven week-old male Sprague-Dawley rats (Crl:CD®(SD)Br VAF/Plus™) weighing approximately 220 g were obtained from Charles-River, Inc (St-Constant, Qc., Canada). The animals were acclimatized to environmental conditions (temperature: 22±3° C.; humidity: 50±20%; 12-h light/12-h dark cycles, lights on at 07:15 h) for at least 5 days before starting the experiment. The animals were housed three per cage and were allowed free access to water and a certified commercial rodent food (Rodent Diet #T.2018.15, Harlan Teklad, Madison, Wis., U.S.A.) and were randomized according to their body weight.
(§2) Assay: A pharmacokinetic study was carried out following one subcutaneous (s.c.) injection of the aminosteroids at one concentration (2.3 mg/kg of body weight in 0.5 mL of vehicle fluid). The compound was first dissolved in Ethanol (EtOH) followed by the addition of propylene glycol such that a final concentration of EtOH of 8% was obtained. During this experiment, the rats were housed individually and were fasted for 8h before injection of the aminosteroid. Blood samples for determination of aminosteroid plasma concentration were collected at the jugular vein (0.4 mL by animal) at target intervals of 3, 7, 12 and 24 h (or 3 and 12 h) post-dose from six rats per time point (Tables 5, 6 and 7). After the collect at 7 h, a replacement fluid (0.9% sodium chloride injection USP) was injected in the rat. Blood samples were collected in Microvette potassium-EDTA (ethylenediamine tetra-acetic acid)-coated tubes (Sarstedt, Aktiengesellchaft & Co, Germany) and centrifuged at 3200 rpm for 10 minutes at 4° C. The plasma was collected and stored at −80° C. until analyzed by liquid chromatography/mass spectrometry/mass spectrometry (LC/MS/MS) analysis.
(§3) Aminosteroid measurement: The concentration of the aminosteroid was determined by LC/MS/MS analysis using a procedure developed at the CHUQ (CHUL)—Research Center (Québec, Qc, Canada). Briefly, for extraction from serum, 100 νL, of the serum sample was transferred to individual tubes and 600 μL of ammonium acetate (1 mM) was added. A methanolic solution (50 μL) containing a steroidal internal standard was then added to each tube. Samples were transferred on Strata-X SPE columns (Phenomenex, Torrance, Calif., USA), which have been conditioned with 2 mL of MeOH and 2 mL of water. Each column was washed with 2 mL of MeOH:water (10:90, v/v). The aminosteroid was then eluted with 5 mL of MeOH containing 5 mM ammonium acetate. The MeOH was evaporated at 45° C. under inert atmosphere and the dried residue dissolved in 100 μL of MeOH:water (85:15, v/v). […] The inhibitor was detected using an API 3000 mass spectrometer, equipped with TurbolonSpray (Applied Biosystems, Canada). ESI in positive ion mode was used.
The subject of data set [4] is HL-60 acute promyelocytic leukemia cells. As to the kind of experiment: Cell proliferation assay (MTS) on HL-60 leukemia cells.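 Also: cells exposed to serially diluted compound for 3 days at 37 °C, then viable cell number read via MTS conversion to coloured formazan by metabolically active cells.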 In kind it is cell-based, human.
Method: (§4) All of the following cell lines were maintained under a CO2 humidified atmosphere at 37° C. The culture media were changed every 3-4 days and the cells were split once a week.
(§5) For the assay, the culture medium was the same.
(§6) The cell proliferation assay was performed using 3-(4,5-dimethylthiazol-2-yl)-5-(3-carboxymethoxyphenyl)2-(4-sulfophenyl)-2H-tetrazolium (MTS) (Cell Titer 96 Aqueous, Promega, USA). MTS is converted into water-soluble colored formazan by dehydrogenase enzymes present in metabolically active cells, which allows the measurement of the number of viable cells.
(§7) The cells were incubated at 37° C. and 5% CO2. The steroid derivatives of the present disclosure were dissolved in ethanol to prepare the 1×10^−2 M stock solutions. The stock solutions and doxorubicin (DOX) (Novapharm, Toronto, Canada) were diluted at multiple concentrations with culture media, added to each well, as indicated, and incubated for 3 days. Following each treatment, 20 μl MTS was added to each well and the mix was incubated for 4 h.
The subject of data set [5] is WI-38 diploid fibroblasts. Description: Cell proliferation assay (MTS) on WI-38 normal fibroblasts. In kind it is cell-based, human. The following applies: Table 3, normal cells, 3 days incubation.
Method: WI-38 diploid fibroblasts derived from embryonic human lung were cultured in MEM (devoid of the pH indicator phenol red) supplemented with 10% (v/v) FBS, L-glutamine (2 nM), penicillin (100 IU/ml), streptomycin sulphate (50 μg/ml), sodium pyruvate (1 mM) and non-essential amino acids (0.1 mM).
as §6, §7
Data set [6] has as its system MDA-MB-231 (ER−) breast cancer cells. As to the kind of experiment: Cell proliferation assay (MTS) on MDA-MB-231 (ER−) breast cancer cells. The following applies: Table 3, 3 days incubation. In kind it is cell-based.
Method: as §4, §5, §6, §7
For data set [7], the system named is normal lymphocytes from peripheral blood. Description: Cell proliferation assay (MTS) on normal lymphocytes. The following applies: for pIC50: read-out: IC50 Lymph Norm.
Method: as §4, §5, §6, §7
In data set [8] the test system is OVCAR-3 ovarian cancer cells. As to the kind of experiment: Cell proliferation assay (MTS) on OVCAR-3 ovarian cancer cells. In kind it is cell-based. The following applies: Table 3, 3 days incubation, MTS. The text has this: For the assay, the culture medium was the same, but without estradiol.
For data set [9], the system named is LNCaP prostate cancer cells. Description: Cell proliferation assay (MTS) on LNCaP prostate cancer cells. In kind it is cell-based. The note with it: Table 3, 3 days incubation.
The subject of data set [10] is MCF-7 breast cancer cells. Description: Cell proliferation assay (MTS) on MCF-7 breast cancer cells. In kind it is cell-based, human. The note with it: Table 3, 3 days incubation. The method, then: MCF-7 breast cancer cells were maintained in Dulbecco's Modified Eagle's Medium (DMEM) containing a nutriment mixture F-12 ham (DME-F12) (Sigma, Saint Louis, USA) supplemented with 5% (v/v) fetal bovine serum (FBS), L-glutamine ([…]), penicillin (100 IU/ml), streptomycin sulphate (50 μg/ml) and estradiol (1 nM). For the assay, DME-F12 was supplemented with 5% (v/v) charcoal-strippes FBS, insulin (50 ng/ml) and the same concentrations of antibiotics as above.

The test system of data set [11] is K-562 leukemia cells. Description: Cell proliferation assay (MTS) on K-562 leukemia cells. The note with it: Table 3, 3 days incubation. In kind it is cell-based.
Method: as §4, §5, §6, §7
Data set [12] in a line: Plasmatic concentration (AUC) of aminosteroids after a single subcutaneous injection in rat. The following applies: 2.3 mg/kg.
Method: as §1, §2, §3
Data set [13] concerns human MCF-7 breast cancer xenografts. Description: Growth of human MCF-7 breast cancer xenografts in nude mice. In kind it is in vivo. The note with it: OVX nude mice, 60 mg/kg s.c. 3 times a week, E2-stimulated; FIG. 1. The protocol: MCF-7 breast cancer cells were obtained from the ATCC (Rockville, Md.) and were propagated in Dubelcco's Modified Eagle's Medium nutrient mixture F-12 ham (DME-F12) medium supplemented with 5% FBS, glutamine (2 mM), penicillin (100 IU/mL), streptomycin (100 μg/mL) and estradiol (1 nM). These cells were used to induce tumors in homozygous female nu/nu Brathymic mice (28-42 days old) that were obtained from Charles River (Saint-Constant, Canada). Bilateral ovariectomy was performed under isoflurane-induced anesthesia. At the time of ovariectomy, an implant of estradiol (E2) was inserted s.c. to stimulate initial tumor growth. E2 implants were prepared in 1 cm long Silastic tubing (inside diameter 0.062 inch, outside diameter 0.095 inch) containing 5 mm of 1:8 (w/w) mixture of E2 and cholesterol. One week after ovariectomy, 4.1×10^6 MCF-7 cells were inoculated s.c. in 0.1 mL of medium growth+30% Matrigel on both flanks of each ovariectomized (OVX) mouse through a 2.5 cm long 22-gauge needle. After approximately 5 weeks, the mice were randomly assigned to 2 groups according to tumor size. […] The size of tumors was measured by two perpendicular diameters and tumor area (mm^2) was calculated using the formula L/2×W/2×π. The area measured on the first day of treatment was taken as 100% (FIG. 1). […]

pIC50: −log10 of the molar value. Where two headings read alike, the source gives them in different places.

For `CC(=O)c1cccc(C(=O)N[C@@H](Cc2ccccc2)C(=O)N2CCN([C@H]3C[C@@]4(C)[C@@H](CC[C@@H]5[C@@H]4CC[C@]4(C)[C@@H](O)CC[C@@H]54)C[C@@H]3O)CC2)c1` [FC-48, 3-acetyl-N-[(2S)-1-{4-[(2β,3α,5α,17β)-3,17-Dihydroxyandrostan-2-yl]piperazin-1-yl}1-oxo-3-phenylpropan-2-yl]benzamide], the pIC50 – broadly, the negative decadic logarithm of the IC50, by convention in mol/L – is less than 5.00 in data set [1] (PC3/AR, 72 h); 5.89 in data set [2] (72 h); 5.74 in [4] (Homo sapiens, HL-60, 72 h, Table 3, 3 days incubation, MTS, read-out: IC50 HL-60); less than 5.00 in [5] (Homo sapiens, WI-38, 72 h); less than 5.00 in [6] (Homo sapiens, MDA-MB-231, 72 h); less than 4.30 in data set [7] (Lymphocyte, 72 h). Besides, the pIC50 was 5.80 in data set [8] (Homo sapiens, OVCAR-3, 72 h); 5.66 in data set [9] (Homo sapiens, LNCaP, 72 h); 5.82 in [10] (Homo sapiens, MCF7, 72 h); less than 5.00 in data set [11] (Homo sapiens, K562, 72 h). Moreover, the AUC(0-t) (usually the area under the concentration-time curve up to a stated or last time point) in data set [3] (AUC (7 h)) stood at 290 ng·h/mL; in data set [3] (AUC (24 h)), 555 ng·h/mL; in data set [3] (AUC(12 h)) it was 413 ng·h/mL.

Turning to `C[C@]12C[C@H](N3CCN(C(=O)[C@@H]4CCCN4C(=O)c4cccc5ccccc45)CC3)[C@@H](O)C[C@@H]1CC[C@@H]1[C@@H]2CC[C@]2(C)[C@@H](O)CC[C@@H]12` [PC-37], the pIC50 is 5.19 in data set [1]; 6.70 in data set [2]; 5.60 in [4] (Table 3, 3 days incubation, MTS, read-out: IC50 HL-60); 5.72 in data set [4] (Table 4, HL-60 cancer cell line, read-out: IC50); 5.72 in data set [4] (Table 6, HL-60 cancer cell line, read-out: IC50 (HL-60)); less than 5.00 in data set [5]. Besides, the pIC50 in data set [6] is less than 5.00; in [7] (Table 3, normal lymphocytes, 3 days incubation, MTS), 4.44; in data set [8], 5.85; in [9] it was 5.82; in data set [10] it was 6.30; in data set [11], 4.97. Moreover, in [7] (even at high concentrations (>10 μM)), the “toxicity on normal healthy lymphocytes” value is “little or no toxicity”. For the same compound, the “AUC (7 h)” value in data set [12] (Table 5, subcutaneous one time) is 337 ng·h/mL. For the same compound, in data set [12] (Table 5, subcutaneous one time), the “AUC (24 h)” value was 552 ng·h/mL. Besides, the “AUC(12 h)” value in data set [12] (Table 5, subcutaneous one time) was 462 ng·h/mL. Besides, the “AUC (0-3 h)” value in data set [12] (Table 6, subcutaneous one time) came to 97 ng·h/mL. For the same compound, the “AUC (0-12 h)” value in data set [12] (Table 6, subcutaneous one time) was determined as 429 ng·h/mL. Moreover, the “growth of human MCF-7 breast cancer xenografts” value in data set [13] is “reduce the growth”.

Values taken from patent US8653054B2, “2-(N-substituted piperazinyl) steroid derivatives” (Universite Laval, priority 2008, dated 2014).
